Test results published in US20250249045A1, “COMPOSITIONS AND METHODS RELATED TO EXTRACELLULAR VESICLE THERAPEUTIC DELIVERY PLATFORM” (priority 2022, published 2025).

How the values were obtained:
[1] = system: SARS-CoV-2 pseudovirus; format: cell-based
[2] = system: SARS-CoV-2 pseudovirus; parameters: species or system mice; conditions: mouse

rhACE2
entry of SARS-CoV-2 pseudovirus into ACE2-expressing A549 cells [1]: efficiently blocked the infection
pseudovirus neutralization by flow cytometry [1]: efficiently neutralized
pseudovirus signals in lung, ex-vivo fluorescence imaging [2]: failed to block SARS-CoV-2 pseudovirus entry
